Data from patent US11236107B2, “Crystal of tricyclic compound” (Chia Tai Tianqing Pharmaceutical Group Co., Ltd., priority 2017, dated 2022).

Experiments:
[1] = target: T1, recombinant human IDO1 enzyme (Homo sapiens, UniProt P14902); test: In vitro hIDO1 enzyme activity test (NFK Green fluorescence); type: biochemical; conditions: recombinant human IDO1, L-tryptophan substrate, pH 6.5, NFK Green readout
T1 construct: purchased NTRC NTRC-hIDO-10K
Method: Experimental Example 1: In Vitro hIDO1 Enzyme Activity Test
The change of NFK production was detected by using the NFK Green™ fluorescent molecule, which is the metabolite of the IDO1 enzyme, and the IC50 value of the compound was used as an index, to evaluate the inhibitory effect of the compound of formula I on the recombinant human IDO1 enzyme.
The compound of formula I was diluted to 1 mM with DMSO, and then diluted 3-fold in duplicate wells, with 10 gradients. 48 μL of 50 mM phosphate buffer (pH 6.5) was transferred and added to the compound plate via Bravo automated liquid handling platform. 2 μL of the diluted solution of the compound in DMSO was then added thereto and mixed, followed by transferring 10 μL thereof to an enzyme reaction plate.
The IDO1 enzyme was diluted to 20 nM in the reaction buffer (50 mM phosphate buffer (pH 6.5), 0.1% Tween-20, 2% glycerol, 20 mM ascorbic acid, 20 μg/mL catalase and 20 μM methylene blue), 20 μL of which was transferred to an enzyme reaction plate and incubated at 23° C. for 30 min. The reaction was started by adding 10 μL of 400 μM L-tryptophan substrate and incubated at 23° C. for 90 min. 10 μL of NFK Green™ fluorescent dye was added thereto, and the plate was sealed with the microplate sealing film, incubated at 37° C. for 4 h, and then read on Envision Multimode Microplate Reader (Ex 400 nm/Em 510 nm). […]

[2] = target: T2, IDO1 enzyme in Hela cells (Homo sapiens, UniProt P14902); test: hIDO1 cytological activity assay (kynurenine in Hela cells by LC-MS); type: cell-based; conditions: IDO1 induced with 100 ng/mL recombinant human γ-interferon, 20 h, read-out: hIDO1 Cytological active IC50
T2 construct: recombinant human γ-interferon was added to a final concentration of 100 ng/mL to induce IDO1 expression; endogenous in cells; host or cells: Hela cells
T2 sequence (P14902 whole entry): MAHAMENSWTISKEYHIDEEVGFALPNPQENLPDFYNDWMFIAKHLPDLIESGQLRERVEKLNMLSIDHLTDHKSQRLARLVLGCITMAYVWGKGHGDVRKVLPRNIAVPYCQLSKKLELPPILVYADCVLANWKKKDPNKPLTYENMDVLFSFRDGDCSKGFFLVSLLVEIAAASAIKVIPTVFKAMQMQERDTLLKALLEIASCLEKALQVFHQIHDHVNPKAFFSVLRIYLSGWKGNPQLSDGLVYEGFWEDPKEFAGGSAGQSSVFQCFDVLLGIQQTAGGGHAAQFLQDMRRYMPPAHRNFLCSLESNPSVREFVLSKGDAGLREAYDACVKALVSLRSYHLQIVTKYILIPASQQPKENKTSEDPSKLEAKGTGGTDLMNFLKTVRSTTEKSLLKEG
Method: Experimental Example 2: hIDO1 Cytological Activity Assay
The change of kynurenine in Hela cells was detected by the LC-MS method, and the IC50 value of the compound was used as an index to evaluate the inhibitory effect of the compound of formula I on IDO1 enzyme.
The culture medium, trypsin and DPBS were preheated in a 37° C. water bath. The culture medium for cell culture was sucked out and washed with 10 mL of DPBS; the preheated trypsin was added into the culture flask, and the flask was rotated to allow the trypsin to uniformly cover it, and then placed in a 37° C., 5% CO2 incubator to digest for 1-2 min; in each T150, cells were dispersed with 10-15 mL of the culture medium, centrifuged at 800 rpm for 5 min, and then resuspended with 10 mL of medium; 1 mL of cell suspension was pipetted and cells were counted with Vi-cell; Hela cells were diluted with the culture medium to 5×10^5/mL, 80 μL of the solution was added to a 96-cell plate, and cultured at 37° C. for 5-6 h in a 5% CO2 incubator.
The compound was diluted to 1 mM with DMSO, and then diluted 3-fold in duplicate wells, with 9 gradients. […]
10 μL of recombinant human γ-interferon was added to a final concentration of 100 ng/mL to induce IDO1 expression. […] The content of kynurenine was detected by LC-MS. […]

T1 sequence (P14902 whole entry): as above

SMILES: FC1(F)CCC([C@H]2c3sccc3-c3cncn32)CC1 [Compound of formula I, (S)-8-(4,4-difluorocyclohexyl)-8H-thieno[3,4]pyrrolo[1,5-a]imidazole]
- IC50 [1]: 48 nM
- IC50 [2]: 74.9 nM
